Assay results from PubChem BioAssay (NCI).
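Test compounds were applied to cells in 96-well plates for 48 hours at 5 doses. GI50 marks 50% less growth. TGI: concentration producing complete growth inhibition.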

What was measured:
Assay in all cases: growth of human tumour cells (NCI), 48 h
RPMI-8226 leukemia = system: RPMI-8226 leukemia
HCC-2998 colon = system: HCC-2998 colon
HCT-116 colon = system: HCT-116 colon
SNB-19 CNS = system: SNB-19 CNS
HT29 colon = system: HT29 colon
NCI-H460 lung = system: NCI-H460 lung
UO-31 renal = system: UO-31 renal
SW-620 colon = system: SW-620 colon
NCI-H23 lung = system: NCI-H23 lung
OVCAR-4 ovarian = system: OVCAR-4 ovarian

| SMILES | TGI (RPMI-8226 leukemia) [µM] | TGI (HCC-2998 colon) [µM] | TGI (HCT-116 colon) [µM] | TGI (SNB-19 CNS) [µM] | TGI (HT29 colon) [µM] | TGI (NCI-H460 lung) [µM] | TGI (UO-31 renal) [µM] | TGI (SW-620 colon) [µM] | TGI (NCI-H23 lung) [µM] | TGI (OVCAR-4 ovarian) [µM] | GI50 (RPMI-8226 leukemia) [µM] | GI50 (HCC-2998 colon) [µM] | GI50 (HCT-116 colon) [µM] | GI50 (SNB-19 CNS) [µM] | GI50 (HT29 colon) [µM] | GI50 (NCI-H460 lung) [µM] | GI50 (UO-31 renal) [µM] | GI50 (SW-620 colon) [µM] | GI50 (NCI-H23 lung) [µM] | GI50 (OVCAR-4 ovarian) [µM] |
| --- | --- | --- | --- | --- | --- | --- | --- | --- | --- | --- | --- | --- | --- | --- | --- | --- | --- | --- | --- | --- |
| C=C[Si](C)(C)COC(=O)/C(C#N)=C/C=C/c1ccccc1 | > 100 | > 100 | > 100 | > 100 | > 100 | > 100 | > 100 | > 100 | > 100 | > 100 |  |  |  |  |  |  |  |  |  |  |
| O=C(Nc1cc(C(F)(F)F)cc(C(F)(F)F)c1)Nc1ccc(OCc2nnc(-c3ccc(Cl)cc3)o2)c(F)c1 | 5.3 | 12 | 3.02 | 25.1 | 10.3 | 7.65 | 8.75 | 12.3 | 6.26 | 10 | 1.02 | 3.12 | 0.802 | 3.1 | 2.7 | 2 | 1.86 | 2.66 | 1.88 | 2.31 |
| COc1cc2oc(-c3cccc(C(=O)Nc4ccc(C)cc4)c3)cc(=O)c2c(OC)c1OC | 3.54 | 17.8 | 21.8 | > 100 | > 100 | > 100 | > 100 | > 100 | 51.4 | > 100 | 0.374 | 3.53 | 2.21 | 6.49 | 2.55 | 1.47 | 3.5 | 4.73 | 4.43 | 2 |
| COC1C(O)CC(OC2CC(OC3CC(O[C@@H]4C(=O)c5c(cc6cc(OC7CC(OC8CC(O)C(O)C(C)O8)C(O)C(C)O7)c(C)c(O)c6c5O)C[C@H]4[C@H](OC)C(=O)[C@@H](O)[C@@H](C)O)OC(C)C3O)OC(C)C2O)OC1C (stereo partly drawn) | 0.383 | 0.114 | > 100 | > 11.1 | > 56 | 4.34 | 0.15 | > 100 | < 0.0442 | > 100 |  |  |  |  |  |  |  |  | < 0.0189 |  |
| O=C1Nc2ccc(CN3CCOC3=O)cc2/C1=C/c1cc(CN2CCOCC2)c[nH]1 | 53.7 | > 100 | > 100 | > 100 | > 100 | > 100 | > 94.7 | > 100 | > 100 | > 100 | 19.2 | 61 | 37.2 | 98.7 | 34.6 | 36.2 | 21.5 | 37.9 | 32.5 | 26.6 |
| CNC12C3C4C1C1C2C3C41C(=O)N[C@H](C(=O)N(C)[C@H](C[C@@H](OC(C)=O)c1nc(C(=O)N[C@@H](Cc2ccccc2)C[C@H](C)C(=O)OC)cs1)C(C)C)C1CC1 (stereo partly drawn) | 1.89 | 2.67 | > 4.1 | > 15 | 1.28 | > 15 | > 15 | > 15 | > 15 | > 15 | 0.0705 | 0.319 | 0.215 | 0.679 | 0.257 | 0.517 | 2.25 | 0.21 | 0.511 | 1.1 |
| O=C(c1ccccc1)c1ccc(O)c2ncccc12 | 39.1 | 41.1 | 10.3 | > 100 | > 100 | 16.2 | 13.5 | 17.9 | 19.6 | 11 | 4.25 | 16.7 | 2.62 | 6.54 | 10.1 | 1.75 | 1.28 | 4.07 | 4.85 | 2.96 |
| COc1ccc(C(=O)C/C(=N/NC(N)=S)C(=O)Nc2ccccc2)cc1 | > 100 | > 100 | > 100 | > 100 | > 100 | > 100 | > 100 | > 100 | > 100 | > 100 |  |  |  |  |  |  |  |  |  |  |
| CC(=O)N1N=C(c2ccc(Nc3nc(Nc4ccc(F)cc4)nc(Nc4ccc(Cl)cc4)n3)cc2)CC1c1ccc(N(C)C)cc1 (stereo not drawn) | > 100 | 7.45 | 10.1 | > 56.2 | > 75.9 | 45 | 16.6 | 56.8 | 16.1 | > 100 | 4.15 | 2.26 | 2.42 | 6.26 | 3.58 | 6.68 | 3.11 | 13.3 | 2.96 | 4.41 |
| NC1=NCC(c2ccccn2)C1c1ccc(F)cc1 (stereo not drawn) | > 100 | > 100 | > 100 | > 100 | > 100 | > 100 | > 100 | > 100 | > 100 | > 100 |  |  |  |  |  |  |  |  |  |  |
| C=C1[C@@H](O)C[C@H]2C(C)(C)C[C@H](Cl)C[C@]2(C)[C@H]1C[C@H](O)[C@H]1CC(=O)NC1=O | 0.0805 | 0.117 | 0.109 | 0.241 | 0.119 | 0.29 | 0.212 | 4.94 | 0.15 | 0.391 | 0.0207 | 0.0173 | < 0.01 | < 0.01 | < 0.0105 | < 0.01 | 0.0185 | 0.0114 | 0.0193 | 0.0174 |
| COc1ccc(C2CC(c3cccc(OC)c3)=NN2C(=O)c2cc(OC)c(OC)c(OC)c2)cc1 (stereo not drawn) | 4.35 | > 100 | > 100 | > 100 | > 100 | > 100 | > 100 | > 100 | > 100 | > 100 | 1.05 | 4.27 | 1.43 | 3.16 | 0.507 | 1.75 | 1.59 | 0.881 | 2.76 | 10.8 |
| Clc1ccc(-c2nc(C(Cl)Cl)nc3cc(-c4ccccc4)nn23)cc1 | > 50 | 1.42 | > 50 | > 50 | > 50 | 2.15 | > 50 | > 50 | 2.64 | 3.63 | 2.54 | 0.741 | 1.67 | 1.49 | 0.751 | 0.787 | 2.04 | 1.01 | 0.947 | 0.917 |
| Cc1cccc(Cl)c1NC(=O)c1cccc([N+](=O)[O-])c1O | 64.6 | > 100 | > 100 | > 100 | > 100 | > 100 | 59.5 | > 100 | 85.1 | > 100 |  |  |  |  |  |  |  |  |  |  |
| O=C([CH-]C(=O)c1ccccc1)c1ccccc1.[CH3-].[CH3-].[CH3-].[Sn+4] | 26.2 | 47.5 | 19.1 | 73 | 60.3 | > 100 | 40.4 | 26 | 63.4 | 56.1 | 4.99 | 18.7 | 5.95 | 14.8 | 19.2 | 6.89 | 12 | 12.3 | 18.4 | 8.81 |
| CN(C)CCC(/C=C/c1ccccc1)=N\Nc1ccc(Cl)cc1 | 4.69 | 3.53 | 13.7 | 27.5 | 13.9 | 4.29 | 4.24 | 14.7 | 20.9 | 21.7 |  |  |  |  |  |  |  |  |  |  |
| CC(C)(C)c1cc(-c2c3nc(c(-c4cc(C(C)(C)C)cc(C(C)(C)C)c4)c4ccc([nH]4)c(-c4cc(C(C)(C)C)cc(C(C)(C)C)c4)c4nc(c(-c5cc(C(C)(C)C)cc(C(C)(C)C)c5)c5ccc2[nH]5)C=C4)C=C3)cc(C(C)(C)C)c1 | > 100 | > 100 | > 100 | > 100 | > 100 | > 100 | > 100 | > 100 | > 100 | > 100 |  |  |  |  |  |  |  |  |  |  |
| COc1ccc(C2SCC(=O)N2NC(=O)C(O)c2ccccc2)cc1 (stereo not drawn) | > 100 | > 100 | > 100 | > 100 | > 100 | > 100 | > 100 | > 100 |  | > 100 | 61.3 | > 100 | > 100 | > 100 | > 100 | > 100 | > 100 | > 100 |  | > 100 |
| O=[N+]([O-])c1ccc2nc3ccscc-3c2c1 | 44.1 | 34.1 |  | > 100 | > 100 | 49.4 | > 100 | > 100 | 70.2 | 31.4 |  |  |  |  |  |  |  |  |  |  |
| CCOc1ccc2c(c1)C(=O)c1c-2n(CCCN)c(=O)c2cc([N+](=O)[O-])ccc12 | 0.302 | 1.4 | 0.543 | 1.48 | 1.12 |  | 0.205 | 1.36 | 0.473 | 2.18 | 0.0443 | 0.183 | 0.0638 | 0.0346 | 0.126 |  | < 0.01 | 0.0516 | 0.0425 | 0.527 |
| CCOC(=O)C1=C(C)N(NC(=O)OC)C2(N)N(NC(=O)OC)C(C)=C(C(=O)OCC)C12C#N (stereo not drawn) | > 100 | > 100 | > 100 | > 100 | > 100 | > 100 | > 100 | > 100 |  | > 100 |  |  |  |  |  |  |  |  |  |  |
| CC(C)C[C@H]1C(=O)N2CCC[C@H]2[C@]2(O)O[C@](NC(=O)[C@@H]3C=C4c5cccc6[nH]c(Br)c(c56)C[C@H]4N(C)C3)(C(C)C)C(=O)N12 | > 100 | > 100 | > 100 | > 100 | > 100 | > 100 | > 100 | > 100 |  | > 100 |  |  |  |  |  |  |  |  |  |  |
| CC1(C)Cc2nnsc2C2=C1C(=O)CCS2 | > 100 | > 100 |  | > 100 | > 100 | > 100 | > 100 | > 100 | > 100 | > 100 |  |  |  |  |  |  |  |  |  |  |
| CCCC(CCC)Oc1ccc(CCCC2=C(O)c3ccccc3C(=O)C2=O)cc1 | 7.49 | 10.1 | 13.6 |  | 17.9 | 11.1 | 13.8 | 17 | 21.1 | 20.5 | 2.9 | 2.8 | 2.17 |  | 6.2 | 3.03 | 2.69 | 4.61 | 5.94 | 8.14 |
| CC(=O)Oc1ccccc1C(=O)NCCC[Se]C#N | 6.04 | 14.9 | 5.03 | 2.95 | 11.2 | 4.52 |  |  | 7.57 | 25.7 | 2.41 | 3.54 | 1.87 | 1.57 | 3.51 | 1.69 |  | 3.47 | 2.58 | 3.62 |
| CCCC(=O)O[C@]1(C)CC[C@@H]2[C@H]3[C@@H]1[C@@H]1C/C(C)=C\CC[C@](C)(OC(=O)[C@@H]2C)[C@H]3O1 | 37.6 | 82.9 | 38.2 | > 100 | > 100 | 69.8 | 65.6 | > 100 |  | > 100 | 15.9 | 21.7 | 18.8 | > 100 | 32.1 | 22.5 | 23.6 | 40.6 |  | 52.9 |
| Cc1ccccc1NC(=O)C(=O)CC(=O)C1CCOC1=O (stereo not drawn) | > 100 | > 100 | > 100 | > 100 |  | > 100 | > 100 | > 100 | > 100 | > 100 |  |  |  |  |  |  |  |  |  |  |
| CSC(=NC#N)S/C=C/C(=O)c1cccc2ccccc12 | > 100 | > 100 | > 100 | > 100 | > 100 | > 100 | 73.5 | > 100 |  | > 100 | 25 | 63 | 40 | 43 | 53.9 | 37.8 | 26 | 36.9 |  | 47.9 |
